Reference: patent US11925632B2, “Isoquinoline derivatives for use in treating GLUT1 deficiency syndrome” (GLIAPHARM SA, priority 2019, dated 2024)
pEC50: −log10 of the molar value.

How the values were obtained:
[1] = test system: G93A SOD1 transgenic mice; experiment: SOD1 G93A mouse ALS model (grip test, survival); type: in vivo
Method: (§1) For pharmacodynamics (FIG. 5) and cognition (FIG. 7) experiments, adult male C57Bl/6J wild-type mice weighting 18-28 g (8 weeks of age) were used (Charles River). For ALS mouse models (FIG. 6), G93A SOD1 transgenic male and female mice on B6.SJL1-Gur/J background were used (Jackson Laboratory).
(§2) Animals were housed in groups of 3-5 in polypropylene cages (30×40×15 cm) with wire mesh top in a temperature (22±2° C.) and humidity (55±15%) controlled environment on a 12 hour light cycle (07.00-19.00 h lights on), except after surgeries when animal were housed individually. […]
Transgenic mice on B6.SJL1-Gur/J background overexpressing the human mutated gene G93A SOD1 were used. […] F1 pups were genotyped after ear punching at weaning, using quantitative PCR (qPCR), which allowed determining the number of SOD1 copies in each mouse. […] Each mouse's weight was recorded every day throughout the entire treatment, while neuromuscular function was measured once a week. […]
The experiment was conducted in a room with a low light intensity (30 lux) to reduce stressful environment. […] Mice ability to grip the grid (time [s]) was measured in order to assess for their muscle strength and coordination. […]

[2] = test system: C57Bl/6J wild-type mice; experiment: In vivo pharmacodynamics, lactate biosensors (cerebral extracellular lactate); design: species or system mouse; conditions: 3 h recording, AUC ratio vs vehicle
Method: as §1, §2
Cerebral extracellular levels of lactate were monitored in vivo using lactate biosensors (Pinnacle Technology), according to the manufacturer's instructions. […] After surgery, mice were monitored closely and received analgesic treatment for at least 4 days. […] Concentrations of cerebral extracellular lactate were calculated from lactate probe electric signals using post-calibration values. […] Area Under the Curve (AUC) of lactate concentration curves were calculated using Graphpad Prism and the ratio of AUC after drug over Vehicle administration was calculated. Extracellular concentrations of L-lactate were measured in real time in freely moving animals for 3 hours after administration of Vehicle or Compound (1) (FIG. 5).

[3] = test system: astrocytes; experiment: Extracellular medium acidification (SNARF5) assay in astrocytes; type: cell-based; conditions: Mus musculus, Astrocyte, 1.5 h; astrocytes in vitro, 90 min stimulation, 10 nM to 30 μM
Method: Secretion of lactate was measured indirectly through the acidification of extracellular medium using extracellular pH sensor SNARE-5F-(AND-6)-CAR (SNARF5) as described below.
Secretion of lactate was measured indirectly through the acidification of extracellular medium using extracellular pH sensor […] (SNARF5). After washing cells twice with stimulation medium (DMEM (D5030, Sigma), 1 mM […], and 5 mM Glucose, pH 7.4) at 37° C., cells were stimulated with compounds at a final concentration ranging from 10 nM to 30 μM in 50 μl per well of stimulation medium supplemented with 10 μM of SNARF5 (Life Technologies Corporation). Each compound was tested in two different plates for duplicates. After 90 min stimulation, fluorescence was read at exc. (excitation) 480 nm/emm. (emission) 580 nm and at exc 480 nm/emm. 630 nm. The ratio of fluorescence between 630 nm and 580 emission values, which is proportional to extracellular pH, was calculated. In each plate, 8 wells were used for negative controls (DMSO 0.1%) and 8 wells were used for positive controls (CCCP 2 μM in DMSO).
Table 3 below lists compounds that are active on the extracellular medium acidification (SNARF5) assay in astrocytes in vitro, which indicates their ability to produce lactate. ‘+’ indicates activity of compounds with EC50>5 μM; ‘++’ indicates activity of compounds with EC50<5 μM.
Primary cultures of cerebrocortical astrocytes were obtained from 1 to 2-day-old OF1 mouse pups (Charles River). Briefly, cortices were isolated and minced in small pieces under a dissecting microscope. The cells were incubated for 30 min at 37° C. in a solution containing 20 U/ml papain, 1 mM L-cysteine and 10 kU/ml DNase I. After dissociation, papain activity was stopped by the addition of fetal calf serum (FCS). Single-cell suspension was then obtained by mechanical dissociation, which consisted in cells trituration in a DMEM D7777 medium supplemented with 44 mm NaHCO3, 10 ml/L antibiotic/antimycotic solution and 10% FCS. The cells were seeded at an average density of ˜10′000 cells/cm^2 on poly-D-lysine coated 96- or 12-well culture plates, depending on their use, and grown in DMEM D7777 medium supplemented with 44 mm NaHCO3, 10 ml/L antibiotic/antimycotic solution and 10% FCS at 37° C. in a humidified atmosphere containing 5% CO2/95% air. Culture medium was renewed twice a week. Cells were stimulated and harvested between DIV14 and DIV17, when confluence and cell growth were optimal.

COc1cc2ccnc(Nc3ccc(OC(F)(F)F)cc3)c2cc1OC [Example 1, 6,7-dimethoxy-N-(4-(trifluoromethoxy)phenyl)isoquinolin-1-amine]
Muscle function (grip test), onset of symptoms ([1]; 10 mg/kg oral daily from post-natal day 30, measured weekly until 16 weeks of age): delayed the onset of the symptoms | Survival (life span, Kaplan-Meier) ([1]; 10 mg/kg oral daily from post-natal day 30, vs vehicle): significantly increased life span | Extracellular lactate levels in the brain ([2]; 10 mg/kg per os): significantly increases extracellular lactate levels | Extracellular lactate levels in the brain ([2]; 100 mg/kg per os): significantly increases extracellular lactate levels | pEC50 [3]: < 5.30
